How the values were obtained:
MCF-7 cells [1] = experiment: TUNEL apoptosis assay; type: cell-based, human; settings: MCF-7, 100 μmol/l, vs control or TAT-NLS-BLBD-6m (Fig. 3b)
Description: (§1) MCF-7 and MDA-MB-231 cells were cultured in 35-mm plates with cover slides on the plate bottom and treated with NLS-BLBD-6, TAT-BLBD-6 and TAT-NLS-BLBD-6 peptide for 24 hr. Subsequently, cells were fixed with 4% paraformaldehyde and permeabilized with 0.2% Triton X-100 for 20 min at room temperature. For the immunofluorescence assay, the slides were incubated with primary antibodies, anti-β-catenin (Epitomics) and anti-TAT (Santa Cruz), for 6 hr, and Alexa-488 fluorescence secondary antibodies for 1 hr. DAPI (Sigma, St Louis, MO) was used to stain the nucleus for 1 min at room temperature. For the TUNEL assay, apoptosis was analyzed by the Apo-BrdU-red DNA Fragmentation Assay kit, according to the manufacturer’s protocol (BioVision, Mountain View, CA, USA). For the PLA, the protein–protein interaction assay was analyzed by Duolink® using PLA® Technology, according to the manufacturer’s protocol (Olink Bioscience, Uppsala, Sweden). Briefly, the slides were incubated with primary antibodies, anti-β-catenin (Epitomics) and anti-TAT (Santa Cruz), and secondary antibodies, Duolink PLA Rabbit MINUS and PLA Mouse PLUS proximity probes. Finally, the proximity ligation was performed by the Duolink detection reagent kit (Olink Bioscience). The immunofluorescence image and TUNEL staining was photographed by a microscope (IX-71, Olympus, Tokyo, Japan).

MDA-MB-231 cells [2] = experiment: TUNEL apoptosis assay; type: cell-based, human; settings: MDA-MB-231, 100 μmol/l, vs control or TAT-NLS-BLBD-6m (Fig. 3b)
Description: as §1

MCF-7 cells [3] = experiment: Wound-healing migration assay; type: cell-based, human; settings: MCF-7, 100 μmol/l, 48 hr post-transfection, vs control or TAT-NLS-BLBD-6m (Fig. 3d)
Description: (§2) Transwell chambers of […] pore size were used in the in vitro invasion assay. MCF-7 and MDA-MB-231 cells were seeded onto the upper chamber and incubated with TAT-NLS-BLBD-6 and TAT-NLS-BLBD-6m peptide and 10% fetal bovine serum medium were added to the bottom chamber well. After 24 hr, cells invading the lower chamber were fixed with 4% paraformaldehyde solution and stained with 0.1% crystal violet for 30 min at 37 °C. Three random field images were obtained by microscopy, and the number of invading cells were counted. For the migration assay, MCF-7 and MDA-MB-231 cells were seeded onto 6-well plates. After 24 hr, an artificial wound was created using a 10-μl pipette tip, and the wound was incubated with TAT-NLS-BLBD-6 or TAT-NLS-BLBD-6m for 24 hr at 37 °C. The images of wound healing were captured by microscopy, and the wound healing distances were calculated by Image J (U.S. National Institutes of Health, Bethesda, MD, USA). For the colony formation assay, MCF-7 and MDA-MB-231 cells were seeded into 10-cm dishes with the medium containing TAT-NLS-BLBD-6 or TAT-NLS-BLBD-6m. After 2 weeks, cells were fixed with 4% paraformaldehyde solution and stained with 0.1% crystal violet for 30 min at 37 °C.

MDA-MB-231 cells [4] = experiment: Wound-healing migration assay; type: cell-based, human; settings: MDA-MB-231, 100 μmol/l, 48 hr post-transfection, vs control or TAT-NLS-BLBD-6m (Fig. 3d)
Description: as §2

[5] = system: β-catenin/TCF4/LEF-1 downstream genes; experiment: Q-PCR of 27 candidate genes in MDA-MB-231; type: cell-based, human; settings: MDA-MB-231, 100 μmol/l, 48 hr post-transfection, relative to TAT-NLS-BLBD-6m (Fig. 6e)
Description: Total RNA was isolated by Trizol reagent (Invitrogen, Carlsbad, CA, USA) and reverse transcribed to produce cDNA using the Deoxy + HiSpec reverse transcriptase kit (Yeastern, Taipei, Taiwan) according to the manufacturer instructions. Q-PCR was analyzed with SYBR Green Master Mix (Applied Biosystems, Stockholm, Sweden) and subjected to quantitation in an […]. The primers used for PCR are given in Supplementary Table S5 online. The Q-PCR data were normalized to 18S cDNA levels.

MDA-MB-231 cells [6] = experiment: Cell growth (CCK-8); type: cell-based, human
Description: Cell growth was analyzed using 2-(2-methoxy-4-nitrophenyl)-3-(4-nitroph enyl)-5-(2,4-disulfophenyl)-2H-tetrazolium, monosodium salt, and the Cell Counting Kit-8 (CCK-8, Sigma). […] After culturing for another 48 hr, cell growth was analyzed by CCK-8 and the optical density was detected at 450 nm. The growth ratio was normalized to the cells without treatment.

[7] = Body weight and toxicity in xenograft models; type: in vivo, mouse
Description: All animal experiments were approved by the Kaohsiung Medical University Institutional Animal Care and Use Committee (IACUC Approval No: 101156) and we accordance with the approved guidelines. Female nude mice (4–5 weeks old) were obtained from the National Laboratory Animal Center (Taipei, Taiwan). Xenograft tumor models were established by subcutaneous injection of 1 × 10^7 MCF-7-YFP or MDA-MB-231-GFP cells into the right flanks of mice. Mice with palpable tumors were randomly divided into three groups with five animals in each group. The mice were treated with control peptide, […], 1 and 10 mg/kg TAT-NLS-BLBD-6 by intratumoral injection once every 2 days for 35 days. The fluorescence density was analyzed by an In Vivo Imaging System (IVIS) (Berthold Technologies, Bad Wildbad, Germany), and the tumor volumes (V) of nude mice were calculated by: V = length × diameter^2 × 0.5. For zebrafish xenotransplantation, zebrafishes (Danio rerio) were maintained at 28 °C in an air incubator, and 1 × 10^4 MCF-7-GFP or MDA-MB-231-GFP cells combined with TAT-NLS-BLBD-6 or control peptide were injected into the zebrafish embryos according to the previously described protocol. The fluorescence density was measured 24 and 28 hr after injection using an epifluorescence microscope.

For H-TAT-NLS-ATDEMIPF-NH2 [TAT-NLS-BLBD-6], the “apoptosis (TUNEL, BrdU binding and DNA fragmentation)” value (MCF-7 cells [1]) was “increased the effect of binding with BrdU and DNA fragmentation”, the “apoptosis (TUNEL, BrdU binding and DNA fragmentation)” value (MDA-MB-231 cells [2]) was “increased the effect of binding with BrdU and DNA fragmentation” and the “migration (wound healing)” value (MCF-7 cells [3]) was “inhibited the mobility”. The “migration (wound healing)” value (MDA-MB-231 cells [4]) was “inhibited the mobility”, the “gene expression of the 27 candidate genes” value [5] was “decreased” and the cell growth (MDA-MB-231 cells [6]; 75 μmol/l peptide, MDA-MB-231, CCK-8, means of three experiments (Fig. 1b)) was “inhibited the growth”. The “time and dose dependence of cell growth” value (MDA-MB-231 cells [6]; MDA-MB-231, indicated concentrations, 24, 48 and 72 hr (Fig. 1c,d)) was “inhibited breast cancer cell growth in a time- and dose-dependent manner”, the “cell growth of embryonic kidney cells” value (HEK293 cells) was “did not inhibit the growth” and the body weight ([7]; nude mice, 1 and 10 mg/kg intratumoral once every 2 days for 35 days, vs control peptide) was “without having any effect on body weight”. The signs of toxicity ([7]; nude mouse and zebrafish xenotransplantation models) was “no signs of toxicity”.

Source: PMC4707489, “A novel cell-penetrating peptide suppresses breast tumorigenesis by inhibiting β-catenin/LEF-1 signaling” (Scientific Reports, 2016)
